What was measured:
Details in all cases: Compound concentration 1000.0 nM
[1] = biological target: RAC-beta serine/threonine-protein kinase (Homo sapiens) (UniProt P31751)
[2] = biological target: Serine/threonine-protein kinase DCLK3 (Homo sapiens) (UniProt Q9C098)
[3] = biological target: Ephrin type-A receptor 3 (Homo sapiens) (UniProt P29320)
[4] = system: Receptor-type tyrosine-protein kinase FLT3 (Homo sapiens), P36888 [K663Q]
[5] = biological target: T1, Homeodomain-interacting protein kinase 4 (Homo sapiens) (UniProt Q8NE63)
T1 sequence (whole entry): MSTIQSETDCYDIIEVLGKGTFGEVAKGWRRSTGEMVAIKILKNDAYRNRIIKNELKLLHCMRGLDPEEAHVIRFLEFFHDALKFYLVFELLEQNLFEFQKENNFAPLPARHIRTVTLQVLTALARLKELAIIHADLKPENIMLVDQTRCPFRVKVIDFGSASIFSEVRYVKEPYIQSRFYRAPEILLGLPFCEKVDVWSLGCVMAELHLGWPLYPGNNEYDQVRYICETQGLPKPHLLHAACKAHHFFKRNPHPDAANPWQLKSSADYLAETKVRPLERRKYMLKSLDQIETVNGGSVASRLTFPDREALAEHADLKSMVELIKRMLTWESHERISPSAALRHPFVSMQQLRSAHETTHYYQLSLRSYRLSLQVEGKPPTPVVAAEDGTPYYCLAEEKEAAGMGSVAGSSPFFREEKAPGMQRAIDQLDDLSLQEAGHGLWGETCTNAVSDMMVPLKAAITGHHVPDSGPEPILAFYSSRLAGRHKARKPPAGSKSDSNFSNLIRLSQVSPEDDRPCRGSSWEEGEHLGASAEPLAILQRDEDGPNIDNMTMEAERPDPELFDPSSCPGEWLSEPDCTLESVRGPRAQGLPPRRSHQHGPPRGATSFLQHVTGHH

[6] = biological target: T2, Interleukin-1 receptor-associated kinase 4 (Homo sapiens) (UniProt Q9NWZ3)
T2 sequence (whole entry): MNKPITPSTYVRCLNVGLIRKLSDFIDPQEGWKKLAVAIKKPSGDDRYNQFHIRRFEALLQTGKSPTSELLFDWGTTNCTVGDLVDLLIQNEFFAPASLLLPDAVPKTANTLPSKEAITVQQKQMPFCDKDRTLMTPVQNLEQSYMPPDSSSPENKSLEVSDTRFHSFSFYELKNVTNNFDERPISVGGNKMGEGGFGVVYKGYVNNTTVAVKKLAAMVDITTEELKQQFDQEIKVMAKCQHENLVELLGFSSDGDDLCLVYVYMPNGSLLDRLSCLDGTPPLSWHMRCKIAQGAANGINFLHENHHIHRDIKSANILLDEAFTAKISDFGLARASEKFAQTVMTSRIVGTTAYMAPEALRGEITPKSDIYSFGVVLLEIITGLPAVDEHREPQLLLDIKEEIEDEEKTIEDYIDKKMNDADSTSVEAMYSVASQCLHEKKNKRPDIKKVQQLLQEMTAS

[7] = biological target: Mitogen-activated protein kinase kinase kinase 4 (Homo sapiens) (UniProt Q9Y6R4)
Sequence of Mitogen-activated protein kinase kinase kinase 4 (Homo sapiens) (Q9Y6R4 whole entry): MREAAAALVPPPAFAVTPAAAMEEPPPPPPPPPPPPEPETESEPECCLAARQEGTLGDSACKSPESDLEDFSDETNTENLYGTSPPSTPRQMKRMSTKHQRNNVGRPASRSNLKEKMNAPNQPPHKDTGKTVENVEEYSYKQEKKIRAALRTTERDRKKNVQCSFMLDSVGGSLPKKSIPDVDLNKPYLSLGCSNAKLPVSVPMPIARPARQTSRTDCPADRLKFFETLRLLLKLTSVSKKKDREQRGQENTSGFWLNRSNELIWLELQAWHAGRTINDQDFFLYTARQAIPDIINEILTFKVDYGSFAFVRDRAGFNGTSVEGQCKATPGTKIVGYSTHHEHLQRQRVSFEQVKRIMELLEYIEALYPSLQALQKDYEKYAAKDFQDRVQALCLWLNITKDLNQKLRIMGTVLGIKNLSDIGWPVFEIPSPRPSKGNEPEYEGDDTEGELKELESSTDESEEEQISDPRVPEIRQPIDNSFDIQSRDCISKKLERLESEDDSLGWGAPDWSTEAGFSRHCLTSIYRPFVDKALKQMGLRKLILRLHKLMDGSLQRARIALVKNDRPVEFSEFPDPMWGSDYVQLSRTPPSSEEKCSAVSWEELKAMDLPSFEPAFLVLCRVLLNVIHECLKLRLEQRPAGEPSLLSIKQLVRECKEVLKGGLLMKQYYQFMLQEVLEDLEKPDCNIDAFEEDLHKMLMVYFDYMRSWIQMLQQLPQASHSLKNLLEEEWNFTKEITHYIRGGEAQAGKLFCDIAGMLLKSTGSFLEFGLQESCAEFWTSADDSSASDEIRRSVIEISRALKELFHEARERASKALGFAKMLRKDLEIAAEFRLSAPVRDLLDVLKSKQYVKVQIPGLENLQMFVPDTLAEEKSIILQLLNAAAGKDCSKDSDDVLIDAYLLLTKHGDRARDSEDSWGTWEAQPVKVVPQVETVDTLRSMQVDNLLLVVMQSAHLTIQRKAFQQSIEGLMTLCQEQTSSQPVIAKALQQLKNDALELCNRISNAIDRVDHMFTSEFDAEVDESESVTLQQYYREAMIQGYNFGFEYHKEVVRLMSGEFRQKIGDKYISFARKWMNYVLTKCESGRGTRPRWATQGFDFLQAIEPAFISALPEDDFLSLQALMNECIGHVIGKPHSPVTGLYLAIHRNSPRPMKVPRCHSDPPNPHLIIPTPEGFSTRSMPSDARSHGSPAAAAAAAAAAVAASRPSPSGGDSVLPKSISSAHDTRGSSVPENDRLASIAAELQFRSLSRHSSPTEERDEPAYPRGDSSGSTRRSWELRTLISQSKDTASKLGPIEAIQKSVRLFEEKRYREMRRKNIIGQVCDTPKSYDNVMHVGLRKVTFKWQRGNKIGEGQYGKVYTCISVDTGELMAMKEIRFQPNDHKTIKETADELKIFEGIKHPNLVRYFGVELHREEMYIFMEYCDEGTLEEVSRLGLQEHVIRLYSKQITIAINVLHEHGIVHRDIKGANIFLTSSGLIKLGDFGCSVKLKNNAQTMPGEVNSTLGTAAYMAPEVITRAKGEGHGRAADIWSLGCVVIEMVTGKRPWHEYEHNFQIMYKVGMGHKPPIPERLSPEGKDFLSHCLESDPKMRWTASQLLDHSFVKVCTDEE

[8] = biological target: Serine/threonine-protein kinase OSR1 (Homo sapiens) (UniProt O95747)
Sequence of Serine/threonine-protein kinase OSR1 (Homo sapiens) (O95747 2-527 limits assumed): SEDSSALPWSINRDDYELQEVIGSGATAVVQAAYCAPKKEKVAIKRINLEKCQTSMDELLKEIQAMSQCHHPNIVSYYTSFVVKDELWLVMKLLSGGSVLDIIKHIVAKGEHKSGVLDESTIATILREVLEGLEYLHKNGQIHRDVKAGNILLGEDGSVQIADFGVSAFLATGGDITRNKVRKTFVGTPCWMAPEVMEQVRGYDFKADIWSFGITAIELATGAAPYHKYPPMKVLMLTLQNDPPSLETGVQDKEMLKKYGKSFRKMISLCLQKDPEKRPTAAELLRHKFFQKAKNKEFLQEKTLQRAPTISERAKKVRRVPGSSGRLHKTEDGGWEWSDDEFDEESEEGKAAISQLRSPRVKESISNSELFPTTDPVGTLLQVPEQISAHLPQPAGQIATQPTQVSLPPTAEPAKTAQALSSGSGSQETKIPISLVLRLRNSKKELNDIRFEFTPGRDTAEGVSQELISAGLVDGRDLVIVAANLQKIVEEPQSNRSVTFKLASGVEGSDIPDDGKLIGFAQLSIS

[9] = biological target: Cyclin-dependent kinase 17 (Homo sapiens) (UniProt Q00537)
Sequence of Cyclin-dependent kinase 17 (Homo sapiens) (Q00537 whole entry, looked up): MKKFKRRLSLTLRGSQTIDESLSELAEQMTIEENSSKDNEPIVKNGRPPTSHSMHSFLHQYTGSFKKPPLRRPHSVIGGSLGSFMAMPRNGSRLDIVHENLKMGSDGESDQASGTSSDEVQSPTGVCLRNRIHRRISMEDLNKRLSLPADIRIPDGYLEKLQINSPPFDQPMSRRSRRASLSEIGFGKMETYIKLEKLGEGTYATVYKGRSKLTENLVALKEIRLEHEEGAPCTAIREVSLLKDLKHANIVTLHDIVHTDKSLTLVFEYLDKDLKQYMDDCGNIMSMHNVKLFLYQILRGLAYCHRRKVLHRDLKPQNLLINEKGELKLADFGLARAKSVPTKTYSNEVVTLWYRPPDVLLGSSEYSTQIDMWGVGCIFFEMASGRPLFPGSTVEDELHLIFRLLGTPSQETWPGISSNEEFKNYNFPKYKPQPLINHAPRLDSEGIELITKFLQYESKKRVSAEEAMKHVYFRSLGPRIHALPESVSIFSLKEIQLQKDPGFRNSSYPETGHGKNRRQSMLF

[10] = biological target: 3-phosphoinositide-dependent protein kinase 1 (Homo sapiens) (UniProt O15530)
Sequence of 3-phosphoinositide-dependent protein kinase 1 (Homo sapiens) (O15530 whole entry, the tested form may be a part): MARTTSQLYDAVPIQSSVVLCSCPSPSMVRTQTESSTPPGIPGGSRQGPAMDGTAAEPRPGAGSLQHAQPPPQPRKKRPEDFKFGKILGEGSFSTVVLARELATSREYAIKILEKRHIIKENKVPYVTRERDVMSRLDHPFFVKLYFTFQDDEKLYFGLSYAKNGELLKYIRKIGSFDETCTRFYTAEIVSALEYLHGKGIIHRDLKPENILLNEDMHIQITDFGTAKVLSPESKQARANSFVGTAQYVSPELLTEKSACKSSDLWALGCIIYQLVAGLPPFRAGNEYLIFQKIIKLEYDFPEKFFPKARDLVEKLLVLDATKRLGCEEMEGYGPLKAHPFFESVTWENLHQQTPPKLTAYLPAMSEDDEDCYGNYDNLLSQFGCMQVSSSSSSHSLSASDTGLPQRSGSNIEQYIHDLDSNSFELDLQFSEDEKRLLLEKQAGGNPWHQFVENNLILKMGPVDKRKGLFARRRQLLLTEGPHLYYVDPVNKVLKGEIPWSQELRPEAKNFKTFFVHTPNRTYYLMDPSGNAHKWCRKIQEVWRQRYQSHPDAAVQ

[11] = biological target: Phosphatidylinositol 3-kinase C2 domain-containing subunit gamma (Homo sapiens) (UniProt O75747)
[12] = system: Proto-oncogene tyrosine-protein kinase receptor Ret (Homo sapiens), P07949 [M918T]
[13] = biological target: Serine/threonine-protein kinase RIO3 (Homo sapiens) (UniProt O14730)
[14] = biological target: T3, Serine/threonine-protein kinase Sgk1 (Homo sapiens) (UniProt O00141)
T3 sequence (whole entry): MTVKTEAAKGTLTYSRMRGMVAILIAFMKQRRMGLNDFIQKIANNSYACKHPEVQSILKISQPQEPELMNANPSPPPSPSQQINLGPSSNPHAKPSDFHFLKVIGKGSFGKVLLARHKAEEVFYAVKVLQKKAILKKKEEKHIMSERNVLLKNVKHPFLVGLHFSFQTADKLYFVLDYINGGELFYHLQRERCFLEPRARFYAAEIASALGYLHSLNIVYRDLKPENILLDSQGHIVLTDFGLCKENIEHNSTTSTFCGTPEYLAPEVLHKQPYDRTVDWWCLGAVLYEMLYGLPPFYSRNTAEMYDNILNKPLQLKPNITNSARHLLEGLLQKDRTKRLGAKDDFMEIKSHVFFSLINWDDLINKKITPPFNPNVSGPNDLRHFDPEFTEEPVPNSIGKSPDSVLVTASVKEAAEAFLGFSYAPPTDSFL

[15] = biological target: T4, Mitogen-activated protein kinase kinase kinase 7 (Homo sapiens) (UniProt O43318)
T4 sequence (whole entry): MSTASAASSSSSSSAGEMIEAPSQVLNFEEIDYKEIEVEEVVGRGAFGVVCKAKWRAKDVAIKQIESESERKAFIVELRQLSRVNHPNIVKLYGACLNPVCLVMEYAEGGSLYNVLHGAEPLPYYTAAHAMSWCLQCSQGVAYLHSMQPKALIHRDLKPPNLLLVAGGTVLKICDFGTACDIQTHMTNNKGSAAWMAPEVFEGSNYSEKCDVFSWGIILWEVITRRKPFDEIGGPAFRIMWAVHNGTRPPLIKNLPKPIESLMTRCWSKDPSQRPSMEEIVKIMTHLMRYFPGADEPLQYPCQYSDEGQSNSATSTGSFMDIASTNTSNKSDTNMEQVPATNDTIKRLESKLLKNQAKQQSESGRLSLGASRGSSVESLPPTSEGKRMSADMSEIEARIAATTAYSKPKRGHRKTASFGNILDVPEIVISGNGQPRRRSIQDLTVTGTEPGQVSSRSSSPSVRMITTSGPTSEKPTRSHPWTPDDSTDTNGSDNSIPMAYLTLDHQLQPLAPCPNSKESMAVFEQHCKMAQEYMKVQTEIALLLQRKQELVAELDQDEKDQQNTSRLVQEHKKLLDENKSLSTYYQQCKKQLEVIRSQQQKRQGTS

[16] = biological target: Serine/threonine-protein kinase WNK1 (Homo sapiens) (UniProt Q9H4A3)

Measured: residual activity

Sequence of Ephrin type-A receptor 3 (Homo sapiens) (P29320 whole entry): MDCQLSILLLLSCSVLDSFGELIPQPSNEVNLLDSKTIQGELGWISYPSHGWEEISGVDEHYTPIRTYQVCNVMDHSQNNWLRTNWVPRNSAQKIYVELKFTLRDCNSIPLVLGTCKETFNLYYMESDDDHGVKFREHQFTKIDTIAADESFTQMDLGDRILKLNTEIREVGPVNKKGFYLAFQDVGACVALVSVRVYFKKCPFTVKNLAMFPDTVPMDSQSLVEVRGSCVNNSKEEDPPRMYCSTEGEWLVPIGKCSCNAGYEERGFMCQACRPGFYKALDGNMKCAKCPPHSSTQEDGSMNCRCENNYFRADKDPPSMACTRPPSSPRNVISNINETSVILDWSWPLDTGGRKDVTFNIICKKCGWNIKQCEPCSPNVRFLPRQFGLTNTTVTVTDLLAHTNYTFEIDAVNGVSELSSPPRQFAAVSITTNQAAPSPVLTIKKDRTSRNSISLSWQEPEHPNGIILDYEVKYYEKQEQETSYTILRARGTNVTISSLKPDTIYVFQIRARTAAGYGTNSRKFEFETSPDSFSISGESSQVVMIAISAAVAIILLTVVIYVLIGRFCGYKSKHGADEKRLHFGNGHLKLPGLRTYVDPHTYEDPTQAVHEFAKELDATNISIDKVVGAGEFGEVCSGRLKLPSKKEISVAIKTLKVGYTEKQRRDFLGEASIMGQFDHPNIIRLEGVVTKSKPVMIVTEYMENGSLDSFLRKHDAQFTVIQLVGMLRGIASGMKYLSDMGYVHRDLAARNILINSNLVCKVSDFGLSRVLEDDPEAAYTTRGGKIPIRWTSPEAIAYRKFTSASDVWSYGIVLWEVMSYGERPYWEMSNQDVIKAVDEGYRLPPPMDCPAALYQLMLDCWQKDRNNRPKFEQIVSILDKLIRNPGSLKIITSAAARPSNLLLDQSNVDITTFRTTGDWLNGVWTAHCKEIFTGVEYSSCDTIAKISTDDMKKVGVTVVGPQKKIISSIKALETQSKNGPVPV
Sequence of RAC-beta serine/threonine-protein kinase (Homo sapiens) (P31751 whole entry): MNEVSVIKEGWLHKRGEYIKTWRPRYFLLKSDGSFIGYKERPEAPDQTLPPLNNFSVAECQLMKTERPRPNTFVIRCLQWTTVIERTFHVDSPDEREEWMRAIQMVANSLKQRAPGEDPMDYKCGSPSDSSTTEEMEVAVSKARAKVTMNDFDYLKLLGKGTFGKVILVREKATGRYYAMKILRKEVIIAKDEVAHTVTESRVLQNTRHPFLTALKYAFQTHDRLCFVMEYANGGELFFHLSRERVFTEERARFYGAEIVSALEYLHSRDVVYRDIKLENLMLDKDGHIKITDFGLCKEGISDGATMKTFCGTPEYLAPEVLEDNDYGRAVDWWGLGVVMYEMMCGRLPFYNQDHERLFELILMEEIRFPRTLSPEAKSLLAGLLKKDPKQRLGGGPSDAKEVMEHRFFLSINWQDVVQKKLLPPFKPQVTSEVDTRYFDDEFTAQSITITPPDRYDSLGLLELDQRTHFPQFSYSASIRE

CN(C)C(=O)Cn1cc(-c2nc(C3(c4ccc(-c5cnc(N)nc5)cc4)CC3)no2)cn1 [BI 0153]
inactive: [1] 100% | [2] 100% | [3] 89% | [4] 100% | [5] 100% | [6] 84% | [7] 92% | [8] 82% | [9] 100% | [10] 82% | [11] 76% | [12] 99% | [13] 89% | [14] 96% | [15] 72% | [16] 97%

CN(C)C(=O)Cn1cc(-c2nc([C@@](C)(c3ccc(-c4cnc(N)nc4)cc3)C3CC3)no2)cn1 [BI 665915]
inactive: [1] 84% | [2] 96% | [3] 100% | [4] 94% | [5] 70% | [6] 85% | [7] 91% | [8] 86% | [9] 96% | [10] 99% | [11] 66% | [12] 83% | [13] 100% | [14] 91% | [15] 50% | [16] 94%

— ChEMBL document CHEMBL4507276 (2021)
